Data taken from US20250032527A1, “MEDICAL USE OF N4-HYDROXY CITICOLINE COMPOUNDS” (IMMUNIC AG, priority 2021, published 2025).
In brackets after ≈: the same amount, converted by molar mass. Counter-ions that a name gives are not always drawn. Like-named read-outs stand apart in the source and are kept apart here.

Assays:
[1] = cited from earlier work
[2] = Mouse pharmacokinetics, blood levels after single oral dose; type: in vivo, female C57BL/6 mice
Description: The present study aimed at the determination of pharmacokinetic parameters of Example 2 and it's metabolites (NHC, NHC-MP, NHC-DP and NHC-TP) in blood after single dose oral administration of 96.5 μmol/kg to female C57BL/6 mice (body weight 20 to 21 g). Blood samples were obtained from the retrobulbar venous plexus into Li-Heparin tubes (Minivette POCT, […]). The vehicle for preparation of the dose formulations was PBS. The samples were analysed by high resolution LC-MS at Pharmacelsus GmbH, Germany.

[3] = in vitro; conditions: human
[4] = system: SARS-COV-2; experiment: microbe, parasite or virus in culture; type: cell-based; conditions: for EC50: Severe acute respiratory syndrome coronavirus 2; for SI: SARS-COV-2, CC50/EC50
[5] = Microsomal stability; type: in vitro ADME; conditions: compared to non-deuterated matched pair C26
[6] = system: RSV A2; experiment: RSV virus titers by endpoint titration (CCID50), mono and combination; type: cell-based; conditions: MA-104 cells, virus control 4.0
[7] = system: HRV-14; experiment: HRV-14 virus titers by endpoint titration (CCID50), mono and combination; type: cell-based; conditions: Hela cells, virus control 6.7
[8] = molecular target: N-terminally truncated recombinant hDHODH enzyme (Homo sapiens, UniProt Q02127); experiment: Human DHODH inhibition assay; type: biochemical; conditions: pH 8.0, 30° C.
Description: Briefly, the hDHODH concentration was adjusted in a way that an average slope of approximately 0.2 AU/min served as the positive control (e.g. without inhibitor). […] The reaction was started by adding dihydroorotate and measuring the absorption at 600 nm for 2 min. For the determination of the IC50 values, each data point was recorded in triplicate. For the determination of the inhibitory constant Ki, the KM values for DHO and decylubichinon were determined. Afterwards, the compounds were diluted in a dilution series depending on their IC50 values in DMSO. The dilution was: 0 ×IC50 , 1/4×IC50 , 1/2×IC50 , 1×IC50 , 2×IC50 , 4×IC50 . […] Each data point was recorded in duplicate.

[9] = pH 7.4
[10] = pH 7.4; remark: listed apart in the source
[11] = physchem; conditions: fassgf or other biorelevant, kinetic from dmso stock
[12] = physchem; conditions: simulated gastric fluid
[13] = physchem; conditions: pH 7.4
[14] = physchem; conditions: pH 7.4, aqueous buffer, kinetic from dmso stock
[15] = B-A permeability (Caco-2, pH 6.5/7.4); conditions: human, test conc. 1.0E−05M
[16] = A-B permeability (Caco-2, pH 6.5/7.4); conditions: human, A-B, Caco-2, pH 6.5/7.4, test conc. 1.0E−05M
[17] = SARS-COV-2 viral replication (YFP), read-out: EC50
[18] = metabolite in blood of mice after single oral 96.5 μmol/kg Example 2
[19] = Caco-2, pH 6.5, Percent Recovery 1st
[20] = Caco-2, pH 6.5, Percent Recovery 2nd
[21] = Caco-2, pH 6.5, Percent Recovery Mean
[22] = Caco-2, pH 6.5, Permeability 1st
[23] = Caco-2, pH 6.5, Permeability 2nd
[24] = Caco-2, pH 6.5, Permeability Mean

Chain of N-terminally truncated recombinant hDHODH enzyme (Q02127 whole entry, looked up, the tested form may be a part): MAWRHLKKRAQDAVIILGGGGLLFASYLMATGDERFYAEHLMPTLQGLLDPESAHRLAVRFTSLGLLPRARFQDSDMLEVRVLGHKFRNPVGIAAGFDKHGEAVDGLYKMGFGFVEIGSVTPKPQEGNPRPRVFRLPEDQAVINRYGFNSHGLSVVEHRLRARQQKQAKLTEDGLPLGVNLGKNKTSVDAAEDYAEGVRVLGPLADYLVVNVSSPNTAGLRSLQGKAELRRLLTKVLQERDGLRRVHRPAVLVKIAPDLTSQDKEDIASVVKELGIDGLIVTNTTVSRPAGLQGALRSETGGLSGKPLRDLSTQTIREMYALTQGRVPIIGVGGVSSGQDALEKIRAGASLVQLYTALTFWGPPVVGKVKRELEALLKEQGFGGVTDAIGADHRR

C[N+](C)(C)CCOP(=O)(O)OP(=O)([O-])OC[C@H]1O[C@@H](n2ccc(N)nc2=O)[C@H](O)[C@@H]1O [Citicoline, cytidine 5′-diphosphocholine]
oral bioavailability [1]: more than 90%

C[N+](C)(C)CCOP(=O)(O)OP(=O)([O-])OC[C@H]1O[C@@H](n2ccc(NO)nc2=O)[C@H](O)[C@@H]1O [Example 2, 2-(((((((2R,3S,4R,5R)-3,4-Dihydroxy-5-(4-(hydroxyamino)-2-oxopyrimidin-1 (2H)-yl)tetrahydrofuran-2-yl)methoxy) (hydroxy)phosphoryl)oxy)oxidophosphoryl)oxy)-N,N,N-trimethylethan-1-aminium triethylammonium salt]
blood concentration of test item (lower limit of quantification) ([2]; mice, single oral 96.5 μmol/kg Example 2, not found in all blood samples): < 14.4 nM

[2H]C([2H])([2H])Oc1cccc(-c2ccc(NC(=O)C3=C(C(=O)O)CCC3)c(F)c2)c1 [Example 50, 2-((3-Fluoro-3′-(methoxy-d3)-[1,1′-biphenyl]-4-yl)carbamoyl) cyclopent-1-ene-1-carboxylic acid]
CC50 [3]: > 100 µM
EC50 [4]: < 10 µM
microsomal stability [5]: improved
RSV Virus Titers ([6]; Conc. 0.0079 μM): 3.7 CCID50/mL (Log10)
RSV Virus Titers ([6]; Conc. 0.025 μM): 3.7 CCID50/mL (Log10)
RSV Virus Titers ([6]; Conc. 0.079 μM): 3.5 CCID50/mL (Log10)
RSV Virus Titers ([6]; Conc. 0.25 μM): 3.5 CCID50/mL (Log10)
RSV Virus Titers ([6]; Conc. 0.79 μM): 3.5 CCID50/mL (Log10)
RSV Virus Titers ([6]; Conc. 2.5 μM): 2.0 CCID50/mL (Log10)
RSV Virus Titers ([6]; Conc. 7.9 μM): 2.0 CCID50/mL (Log10)
RSV Virus Titers ([6]; Conc. 25 μM): <0.7 CCID50/mL (Log10)
HRV-14 Virus Titers ([7]; Conc. 0.0079 μM): 6.7 CCID50/mL (Log10)
HRV-14 Virus Titers ([7]; Conc. 0.025 μM): 6.7 CCID50/mL (Log10)
HRV-14 Virus Titers ([7]; Conc. 0.079 μM): 7.0 CCID50/mL (Log10)
HRV-14 Virus Titers ([7]; Conc. 0.25 μM): 6.7 CCID50/mL (Log10)
HRV-14 Virus Titers ([7]; Conc. 0.79 μM): 6.7 CCID50/mL (Log10)
HRV-14 Virus Titers ([7]; Conc. 2.5 μM): 7.0 CCID50/mL (Log10)
HRV-14 Virus Titers ([7]; Conc. 7.9 μM): 4.0 CCID50/mL (Log10)
HRV-14 Virus Titers ([7]; Conc. 25 μM): 3.5 CCID50/mL (Log10)

[2H]C([2H])([2H])Oc1cccc(-c2cc(F)c(NC(=O)C3=C(C(=O)O)CCC3)c(F)c2)c1 [Example 51, 2-((3,5-Difluoro-3′-(methoxy-d3)-[1,1′-biphenyl]-4-yl)carbamoyl) cyclopent-1-ene-1-carboxylic acid]
CC50 [3]: > 100 µM
SI [4]: >5
EC50 [4, 17]: < 20 µM

C[N+](C)(C)CCOP(=O)([O-])OP(=O)([O-])OC[C@H]1O[C@@H](n2ccc(N)nc2=O)[C@H](O)[C@@H]1O.[Na+] [Example C1, Citicoline sodium, reference compound]
CC50 [3]: > 100 µM
SI [4]: inactive
EC50 [4, 17]: > 50 µM

COc1cccc(C2=CCC=C(NC(=O)C3=C(C(=O)O)CCC3)C(F)=C2)c1 [Example C26]
Ki ([8]; substrate DHO varied, read-out: Ki (DHO)): 0.592 µM
Ki ([8]; substrate decylubichinon varied, read-out: Ki (decylubichinon)): 0.245 µM

O=c1nc(NO)ccn1[C@@H]1O[C@H](CO)[C@@H](O)[C@H]1O [NHC, β-D-N^4-hydroxycytidine]
logD [9]: 1.12
Solubility 1st [10]: 349.99 µM (≈ 90.7 µg/mL)
Solubility 2nd [10]: 362.05 µM (≈ 93.8 µg/mL)
Solubility Mean [10]: > 200 µM

O=c1nc(NO)ccn1[C@@H]1O[C@H](COP(=O)(O)OP(=O)(O)O)[C@@H](O)[C@H]1O [NHC-DP, β-D-N^4-hydroxycytidine 5′-diphosphate]
logD [9]: 0.12

O=c1nc(NO)ccn1[C@@H]1O[C@H](COP(=O)(O)O)[C@@H](O)[C@H]1O [NHC-MP]
AUC (0-inf) [2, 18]: 1.624 µM·h
elimination half-life [2, 18]: 7.3 h
maximal blood concentration [2, 18]: 274+41.4 nM
time of maximal blood concentration post dose [2, 18]: 30 min

O=c1nc(NO)ccn1[C@@H]1O[C@H](COP(=O)(O)OP(=O)(O)OP(=O)(O)O)[C@@H](O)[C@H]1O [NHC-TP, β-D-N^4-hydroxycytidine 5′-triphosphate, reference compound]
maximal blood concentration [2, 18]: 611+100 nM
time of maximal blood concentration post dose [2, 18]: 240 min

CC(C)C(=O)OC[C@H]1O[C@@H](n2ccc(NO)nc2=O)[C@H](O)[C@@H]1O [molnupiravir, reference compound]
solubility ([11]; Solubility 1st): 302 µM (≈ 99.3 µg/mL)
solubility ([11]; Solubility 2nd): 329 µM (≈ 108 µg/mL)
solubility ([11]; Solubility Mean): > 200 µM
solubility ([12]; Solubility 1st): 258 µM (≈ 84.9 µg/mL)
solubility ([12]; Solubility 2nd): 293 µM (≈ 96.4 µg/mL)
solubility ([12]; Solubility Mean): > 200 µM
logD [13]: 0.39
solubility ([14]; Solubility 1st): 247 µM (≈ 81.3 µg/mL)
solubility ([14]; Solubility 2nd): 291 µM (≈ 95.7 µg/mL)
solubility ([14]; Solubility Mean): > 200 µM
recovery at 10 µM [15, 19]: 90%
recovery at 10 µM [15, 20]: 89%
recovery at 10 µM [15, 21]: 89%
Papp at 10 µM [15, 22]: 0.26 ×10⁻⁶ cm/s
Papp at 10 µM [15, 23]: 0.27 ×10⁻⁶ cm/s
Papp at 10 µM [15, 24]: 0.3 ×10⁻⁶ cm/s
recovery at 10 µM [16, 19]: 70%
recovery at 10 µM [16, 20]: 71%
recovery at 10 µM [16, 21]: 71%
Papp at 10 µM [16, 22]: 0.19 ×10⁻⁶ cm/s
Papp at 10 µM [16, 23]: 0.13 ×10⁻⁶ cm/s
Papp at 10 µM [16, 24]: 0.2 ×10⁻⁶ cm/s
